Measured values taken from US8252909B2, “Synthetic C-glycolipid and its use for treating cancer, infectious diseases, and autoimmune diseases” (New York University, priority 2002, dated 2012).
Values joined by “and” are separate entries in the source; they are usually repeats but may differ in a detail not shown here. Equal values may be shown once.

Tests used:
[1] = system: P. yoelii sporozoites; assay: malaria liver stage development in mice challenged with P. yoelii sporozoites, real-time RT-PCR of 18S rRNA in liver; assay type: in vivo; settings: for suppression of P. yoelii liver stages in deficient mice: mice deficient in CD1d, Jα18, IFN-γ or IFN-γ receptor; for suppression of P. yoelii liver stages in deficient mice / malaria liver stage development: 2 μg intraperitoneally two days before challenge; for malaria liver stage development: compared to untreated control; for dose of equal anti-malaria activity (dose response): intraperitoneally three days before challenge
Protocol: (§1) P. yoelii (17NXL strain) was maintained by alternate cyclic passages in Anopheles stephensi mosquitoes and Swiss Webster mice. Sporozoites obtained from dissected salivary glands of infected mosquitoes 2 weeks after their infective blood were used for challenge of the mice. Challenge of mice to determine the development of liver-stage malaria infection was performed by an intravenous injection of 10,000 viable sporozoites into the tail vein. The outcome of the challenge was determined 40-42 hours later by measuring the parasite burden in the livers of the mice using a quantitative real-time RT-PCR method, as taught in Bruna-Romero et al., Int. J. Parasitol. 31, 1449-1502, 2001. Challenge of mice toe determine the development of blood stage malaria infection was performed by an intravenous injection of 75 viable sporozoites into the tail vein. Starting four days after challenge, daily peripheral blood smears were obtained from each mouse and examined microscopically for the presence of blood stage parasites until day 17 post-challenge. Mice were considered positive for parasitemia if at least one blood stage parasite was observed during the time of examination.
The degree of liver stage development in challenged mice was determined by quantifying the amount of P. yoelii-specific 18S rRNA molecules in the livers of the mice by way of the real-time RT-PCR technique of Bruna-Romero et al. A 2 μg sample of total RNA prepared from the livers of challenged mice was reverse-transcribed, and an aliquot of the resulting cDNA (133 ng) was used for real-time PCR amplification of P. yoelii 18S rRNA sequences. This amplification was performed in a GeneAmp® 5700 Sequence Detection System (PE Applied Biosystems, Foster City, Calif.). For this purpose, primers 5′-[…]-3′ (SEQ. ID NO: 1) (54 nM) and 5′-[…]-3′ (SEQ. ID NO: 2) (60 nm) were used, together with the dsDNA-specific dye SYBR Green I incorporated into the PCR reaction buffer (PE Biosystems, Foster City, Calif.) in order to detect the PCR product generated. The temperature profile of the reaction was 95° C. for 10 minutes followed by 35 cycles of denaturation of 95° C. for 15 seconds and annealing/extension at 60° C. for 1 minute.

[2] = system: P. yoelii sporozoites; assay: sporozoite-induced blood stage malaria infection, daily blood smears; assay type: in vivo; settings: wild type BALB/c mice, 100 ng intraperitoneally three days before challenge
Protocol: as §1

[3] = system: B16 melanoma cells; assay: melanoma lung metastases, count of metastatic nodules; assay type: in vivo, C57/BL6 mice; settings: for dose of equal anti-cancer response (lung metastatic nodules): C57BL/6 mice, intravenously two days before challenge with 5×10^4 B16 cells, lungs checked two weeks later
Protocol: The development of melanoma lung metastases in C57/BL6 mice was determined by first challenging mice intravenously with 5×10^4 syngeneic B16 melanoma cells suspended in DMEM supplemented with 10% FCS. Two weeks after challenge the mice were sacrificed, the lungs removed, and the number of metastatic nodules counted, as described in Fujii et al., Natl. Immunol. 3, 867-874 (2002).

[4] = system: IL-4; assay: serum IL-4 after treatment, sandwich ELISA; assay type: in vivo; settings: wild type BALB/c mice, 1 μg intravenously
Protocol: (§2) The serum concentrations of IFN-γ and IL-4 were measured 2, 6, 12, 24, 48, and 72 hours after treatment with α-GalCer, α-C-GalCer, or nothing by way of a sandwich ELISA (e-bioscience, San Diego). The serum concentrations of IL-12p70 were also measured at 2, 6, 12, 24, 48 and 72 hours after treatment by way of a sandwich ELISA (Pharmingen, San Diego).

[5] = system: IFN-γ; assay: serum IFN-γ after treatment, sandwich ELISA; assay type: in vivo; settings: wild type BALB/c mice, 1 μg intravenously
Protocol: as §2

[6] = system: IL-12p70; assay: serum IL-12 after treatment, sandwich ELISA; assay type: in vivo; settings: wild type BALB/c mice, 1 μg intravenously
Protocol: as §2

[7] = system: P. yoelii sporozoites; settings: mice, administered two days before challenge with Plasmodium sporozoites (Gonzalez-Aseguinolaza 2000); cited from earlier work
[8] = recent human trials (Shimosaka et al.); cited from earlier work
[9] = independently of dosage (Nakagawa et al., 1998); cited from earlier work
[10] = system: liver enzyme activities; settings: mice, immediately after treatment (Osman et al., 2000); cited from earlier work
[11] = 100 ng intraperitoneally four days before challenge

| SMILES | anti-malaria activity in IL-12 deficient mice [1, 11] | suppression of P. yoelii liver stages in deficient mice [1] | malaria liver stage development ([1]; wild type BALB/c mice) | dose of equal anti-malaria activity (dose response) ([1]; wild type BALB/c mice) [ng] | mice completely protected from blood stage malaria [2] | dose of equal anti-cancer response (lung metastatic nodules) [3] [ng] | time of peak serum IL-4 concentration after treatment [4] [h] | time at which detectable serum IFN-γ levels start [5] [h] | time of peak serum IL-12 concentration after treatment [6] [h] | serum IL-12 levels 12 hours after treatment [6] | also measured |
| --- | --- | --- | --- | --- | --- | --- | --- | --- | --- | --- | --- |
| CCCCCCCCCCCCCCCCCCCCCCCCCC(=O)N[C@@H](CC[C@H]1O[C@H](CO)[C@H](O)[C@H](O)[C@H]1O)[C@H](O)[C@H](O)CCCCCCCCCCCCCC [α-C-GalCer, 3′S,4′S,5′R-3′-N-hexacosanoyl-4′,5′-dihydroxynonadecyl-α-C-D-galactopyranoside] | no difference in anti-malaria activity | unable to suppress | virtually no liver stage development | 1 | 9 of 10 | 1 | 2 | 6 | 6 | detectable | potency against malaria relative to α-GalCer ([1]; malaria disease model, mice): 1000 fold; extension of anti-malaria effect (kinetic effect) ([1]; wild type BALB/c mice, 100 ng intraperitoneally at various times before challenge): up to three days longer than α-GalCer; suppression of liver stage development, wild type mice ([1]; wild type mice, 100 ng intraperitoneally four days before challenge): suppressed liver stage development to a much greater degree than α-GalCer; potency against melanoma metastases relative to α-GalCer ([3]; melanoma metastases model, mice): 100 fold; peak serum IL-12 concentration relative to α-GalCer ([6]; 6 hours): 2 times |
| CCCCCCCCCCCCCCCCCCCCCCCCCC(=O)N[C@@H](CO[C@H]1O[C@H](CO)[C@H](O)[C@H](O)[C@H]1O)[C@H](O)[C@H](O)CCCCCCCCCCCCCC [α-GalCer, (2S,3S,4R)-1-O-(α-D-galactopyranosyl)-2-(N-hexacosanoylamino)-1,3,4-octadecanetriol] | no difference in anti-malaria activity | unable to suppress | virtually no liver stage development | 1000 | 0 of 10 | 100 | 2 | 6 | 6 | undetectable | peak serum IL-4 concentration relative to α-C-GalCer ([4]; 2 hours): roughly 3 times; time of peak serum IFN-γ post-treatment [5]: 12 h and 24 h; development of malaria liver stages [7]: suppressed development of malaria liver stages; cytotoxicity in humans [8]: not cytotoxic; toxicity in rodents and monkeys [9]: does not induce toxicity; liver enzyme activities after treatment [10]: transient elevation of liver enzyme activities |
